From patent publication US20230398130A1, “METHODS AND COMPOSITIONS FOR DIFFERENTIATING STEM CELLS” (Massachusetts Institute of Technology, priority 2020, published 2023)
“Also recorded” adds a separate entry of the source.

Legend:
ISC-enriched organoids [1] = assay: Lysozyme secretion assay, 3-D organoids in ENR+CD, normalized to ATP; assay type: cell-based, murine; conditions: for Paneth cell differentiation (functional LYZ secretion), in combination with KPT-330: 6-day ENR+CD differentiation with 160 nM KPT-330; for Paneth cell differentiation (functional LYZ secretion), compound alone: 6-day ENR+CD differentiation, 10 μM SR11302, 20 nM Cobimetinib, others over a dose range
Description: Lysozyme assay (3D culture). ISC-enriched organoids cultured in 3D Matrigel with ENRCV media were passaged to 48-well plate in 3D Matrigel with ENRCV. At day zero, media were replaced to ENR or ENRCD with or without indicated compounds, and media were replaced every other day. At day six, cells were washed twice with basal media and treated with carbamylcholine chloride (Sigma, C4382) for 3 hours. Media were collected and lysozyme activity was measured by EnzChek Lysozyme Assay Kit (ThermoFisher, E22013).
(§1) Lysozyme secretion assay. ISC-enriched organoids in 3D Matrigel culture were passaged to a 48- or 96-well plate and cultured with ENR or ENR+CD media containing DMSO or each drug for 6 days. DMSO- or drug-containing media were changed every other day. On day 6, cells were washed with basal media twice and treated with basal media with or without 10 μM carbamoylcholine chloride for 3 h in a CO2 incubator at 37° C. A part of the conditioned media was collected and used for lysozyme assay (Thermo, E-22013) following the manufacturer's instruction. The fluorescence was measured using excitation/emission of 485/530 nm. CellTiter-Glo 3D Reagent (Promega, G9681) was added afterward, and the cell culture plate was incubated on an orbital shaker at RT for 30 min to induce cell lysis and to stabilize the luminescent signal. The solution was replaced to a 96-well white microplate, and luminescent signals were measured by a microplate reader (infinite M200, Tecan). The standard curve was prepared by diluting recombinant ATP (Promega, P1132). For both assays, a polynomial cubic curve was fitted to a set of standard data, and each sample value was calculated on the Microsoft Excel.
as §1, with “in 3-D” for “in 3D”, “μM carbachol” for “μM carbamoylcholine chloride”, “3 hours” for “3 h”, “C. Conditioned” for “C. A part of the conditioned”, “nm. CTG” for “nm. CellTiter-Glo”, “Reagent” for “Reagent (Promega, G9681)”

ISC-enriched organoids [2] = assay: Primary screen, 384-well 2.5-D organoid differentiation (ENR+CD, 6 days): basal lysozyme secretion (LYZ.NS); assay type: cell-based, murine; conditions: SSMD in LYZ.NS and LYZ.S assays
Text: High-throughput screening.

Compound	Paneth cell differentiation (functional LYZ secretion), in combination with KPT-330 (ISC-enriched organoids [1])	Paneth cell differentiation (functional LYZ secretion), compound alone (ISC-enriched organoids [1])	primary screen hit call (ISC-enriched organoids [2])
O=C(c1ccc(F)c(F)c1Nc1ccc(I)cc1F)N1CC(O)([C@@H]2CCCCN2)C1 [cobimetinib]	differentiation was enhanced; also recorded: significantly enhance Paneth cell differentiation; also recorded: proved synergistic in combination with KPT-330	did not significantly alter Paneth cell differentiation	
c1ccc2c(CCNc3ccc(Nc4ccncc4)cc3)c[nH]c2c1 [serdemetan]	neither P53 inhibitor altered Paneth cell differentiation; also recorded: did not alter Paneth cell differentiation	neither P53 inhibitor altered Paneth cell differentiation; also recorded: did not alter Paneth cell differentiation	
COc1cc2c(Nc3ccc(NC(=O)c4ccccc4)cc3)ncnc2cc1OCCCN1CCOCC1 [ZM447439, reference compound]		did significantly increase Paneth cell differentiation	lower-effect size hit
